In patent publication US6969730B2, “Amines as histamine-3 receptor ligands and their therapeutic applications” (Abbott Laboratories, priority 2001, dated 2005):

target: T1, histamine-3 receptors (H3 receptor) (Rattus norvegicus, UniProt Q9QYN8); test: (3H)-N-α-methylhistamine binding to rat cortical membranes (histamine-3 receptor ligands); conditions: male Sprague-Dawley rat brain cortical membranes; (3H)-N-α-methylhistamine ~0.6 nM; 30 minutes at 25° C.; Cheng-Prusoff
T1 construct: from tissue; host or cells: male Sprague-Dawley rat brain cortex membranes
T1 sequence (Q9QYN8 whole entry): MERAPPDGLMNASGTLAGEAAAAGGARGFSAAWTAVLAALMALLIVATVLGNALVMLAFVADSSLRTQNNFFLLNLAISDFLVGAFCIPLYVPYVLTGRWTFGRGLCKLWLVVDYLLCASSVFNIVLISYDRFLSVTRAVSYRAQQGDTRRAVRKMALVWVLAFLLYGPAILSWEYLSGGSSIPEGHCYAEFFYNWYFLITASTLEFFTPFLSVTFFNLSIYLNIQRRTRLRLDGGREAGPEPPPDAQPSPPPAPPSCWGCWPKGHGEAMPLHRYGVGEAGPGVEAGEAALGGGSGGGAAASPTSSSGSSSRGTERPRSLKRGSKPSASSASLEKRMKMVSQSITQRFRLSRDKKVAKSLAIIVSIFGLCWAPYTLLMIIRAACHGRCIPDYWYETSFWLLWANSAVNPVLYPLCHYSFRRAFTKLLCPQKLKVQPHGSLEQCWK
Procedure: Briefly, male Sprague-Dawley rat brain cortices were homogenized (1 g tissue/10 mL buffer) in 50 mM Tris-HCl/5 mM EDTA containing protease inhibitor cocktail (Calbiochem) using a polytron set at 20,500 rpm. Homogenates were centrifuged for 20 minutes at 40,000×g. The supernatant was decanted, and pellets were weighed. The pellet was resuspended by polytron homogenization in 40 mL 50 mM Tris-HCl/5 mM EDTA with protease inhibitors and centrifuged for 20 minutes at 40,000×g. […] Rat cortical membranes (12 mg wet weight/tube) were incubated with (^3H)-N-α-methylhistamine (˜0.6 nM) with or without H3 receptor antagonists in a total incubation volume of 0.5 mL of 50 mM Tris-HCl/5 mM EDTA (pH 7.7). Test compounds were dissolved in DSMO to provide a 20 mM solution, serially diluted and then added to the incubation mixture prior to initiating the incubation assay by addition of the membranes. Thioperamide (3 μM) was used to determine nonspecific binding. Binding incubations were conducted for 30 minutes at 25° C. and terminated by addition of 2 mL of ice cold 50 mM Tris-HCl (pH 7.7) and filtration through 0.3% polyethylenimine-soaked Unifilter plates (Packard). These filters were washed 4 additional times with 2 mL of ice-cold 50 mM Tris-HCl and dried for 1 hour. Radioactivity was determined using liquid scintillation counting techniques. Results were analyzed by Hill transformation and Ki values were determined using the Cheng-Prusoff equation.

| Ki | Structure (SMILES) |
| --- | --- |
| 120 nM | C[C@@H]1CCCN1CCc1cc2cc(-c3ccc(C(F)(F)F)cc3)ccc2o1 [Example 127, (2R)-2-methyl-1-(2-{5-[4-(trifluoromethyl)phenyl]-1-benzofuran-2-yl}ethyl)pyrrolidine] |
| 110 nM | C[C@@H]1CCCN1CCc1cc2cc(-c3cccc(OC(F)(F)F)c3)ccc2o1 [Example 128, (2R)-2-methyl-1-(2-{5-[3-(trifluoromethoxy)phenyl]-1-benzofuran-2-yl}ethyl)pyrrolidine] |
| 150 nM | C[C@@H]1CCCN1CCc1cc2cc(-c3ccc(OC(F)(F)F)cc3)ccc2o1 [Example 129, (2R)-2-methyl-1-(2-{5-[4-(trifluoromethoxy)phenyl]-1-benzofuran-2-yl}ethyl)pyrrolidine] |
| 60 nM | Cc1ccc(-c2ccc3oc(CCN4CCC[C@H]4C)cc3c2)cc1C [Example 130, (2R)-1-{2-[5-(3,4-dimethylphenyl)-1-benzofuran-2-yl]ethyl}-2-methylpyrrolidine] |
| 22 nM | C[C@@H]1CCCN1CCc1cc2cc(-c3cc(Cl)cc(Cl)c3)ccc2o1 [Example 131, (2R)-1-{2-[5-(3,5-dichlorophenyl)-1-benzofuran-2-yl]ethyl}-2-methylpyrrolidine] |
| 19 nM | Cc1cc(C)cc(-c2ccc3oc(CCN4CCC[C@H]4C)cc3c2)c1 [Example 132, (2R)-1-{2-[5-(3,5-dimethylphenyl)-1-benzofuran-2-yl]ethyl}-2-methylpyrrolidine] |
| 6.4 nM | C[C@@H]1CCCN1CCc1cc2cc(-c3ccc(CO)cc3)ccc2o1 [Example 133, [4-(2-{2-[(2R)-2-methyl-1-pyrrolidinyl]ethyl}-1-benzofuran-5-yl)phenyl]methanol] |
| 3.2 nM | C[C@@H]1CCCN1CCc1cc2cc(-c3cccnc3)ccc2o1 [Example 134, 3-(2-{2-[(2R)-2-methyl-1-pyrrolidinyl]ethyl}-1-benzofuran-5-yl)pyridine] |
| 31 nM | C[C@@H]1CCCN1CCc1cc2cc(C=Cc3ccc(F)cc3)ccc2o1 [Example 135, (2R)-1-(2-{5-[2-(4-fluorophenyl)vinyl]-1-benzofuran-2-yl}ethyl)-2-methylpyrrolidine] |
| 0.4 nM | CC(=O)c1cccc(-c2ccc3oc(CCN4CCC[C@H]4C)cc3c2)c1 [Example 136, 1-[3-(2-{2-[(2R)-2-methyl-1-pyrrolidinyl]ethyl}-1-benzofuran-5-yl)phenyl]ethanone] |
| 2.8 nM | CC(O)c1cccc(-c2ccc3oc(CCN4CCC[C@H]4C)cc3c2)c1 (stereo partly drawn) [Example 137, 1-[3-(2-{2-[(2R)-2-methyl-1-pyrrolidinyl]ethyl}-1-benzofuran-5-yl)phenyl]ethanol] |
| 1.2 nM | C[C@@H]1CCCN1CCc1cc2cc(-c3cccc(C(C)(C)O)c3)ccc2o1 [Example 138, 2-[3-(2-{2-[(2R)-2-methyl-1-pyrrolidinyl]ethyl}-1-benzofuran-5-yl)phenyl]-2-propanol] |
| 3.1 nM | CC(=NO)c1cccc(-c2ccc3oc(CCN4CCC[C@H]4C)cc3c2)c1 [Example 139, 1-[3-(2-{2-[(2R)-2-methyl-1-pyrrolidinyl]ethyl}-1-benzofuran-5-yl)phenyl]ethanone oxime] |
| 21 nM | CON=C(C)c1cccc(-c2ccc3oc(CCN4CCC[C@H]4C)cc3c2)c1 [Example 140, 1-[3-(2-{2-[(2R)-2-methyl-1-pyrrolidinyl]ethyl}-1-benzofuran-5-yl)phenyl]ethanone O-methyloxime] |
| 44 nM | CCON=C(C)c1cccc(-c2ccc3oc(CCN4CCC[C@H]4C)cc3c2)c1 [Example 141, 1-[3-(2-{2-[(2R)-2-methyl-1-pyrrolidinyl]ethyl}-1-benzofuran-5-yl)phenyl]ethanone O-ethyloxime] |
| 29 nM | CC(=NOC(C)(C)C)c1cccc(-c2ccc3oc(CCN4CCC[C@H]4C)cc3c2)c1 [Example 142, 1-[3-(2-{2-[(2R)-2-methyl-1-pyrrolidinyl]ethyl}-1-benzofuran-5-yl)phenyl]ethanone O-(tert-butyl)oxime] |
| 19 nM | CC(C)CC(=O)c1cccc(-c2ccc3oc(CCN4CCC[C@H]4C)cc3c2)c1 [Example 148, 3-methyl-1-[3-(2-{2-[(2R)-2-methyl-1-pyrrolidinyl]ethyl}-1-benzofuran-5-yl)phenyl]-1-butanone] |
| 3.3 nM | C[C@@H]1CCCN1CCc1cc2cc(-c3cccc(C=O)c3)ccc2o1 [Example 149, 3-(2-{2-[(2R)-2-methyl-1-pyrrolidinyl]ethyl}-1-benzofuran-5-yl)benzaldehyde] |
| 3.6 nM | C[C@@H]1CCCN1CCc1cc2cc(-c3cccc(C(=O)c4cccs4)c3)ccc2o1 [Example 150, [3-(2-{2-[(2R)-2-methyl-1-pyrrolidinyl]ethyl}-1-benzofuran-5-yl)phenyl](2-thienyl)methanone] |
| 53 nM | C[C@@H]1CCCN1CCc1cc2cc(-c3cccc(C(=O)c4cccc(F)c4)c3)ccc2o1 [Example 151, (3-fluorophenyl)[3-(2-{2-[(2R)-2-methyl-1-pyrrolidinyl]ethyl}-1-benzofuran-5-yl)phenyl]methanone] |
| 2.6 nM | C[C@@H]1CCCN1CCc1cc2cc(-c3cccc(CO)c3)ccc2o1 [Example 152, [3-(2-{2-[(2R)-2-methyl-1-pyrrolidinyl]ethyl}-1-benzofuran-5-yl)phenyl]methanol] |
| 32 nM | C[C@@H]1CCCN1CCc1cc2cc(Cc3ccccc3)ccc2o1 [Example 153, (2R)-1-[2-(5-benzyl-1-benzofuran-2-yl)ethyl]-2-methylpyrrolidine] |
| 2 nM | C[C@@H]1CCCN1CCc1cc2cc(-n3ccnc3)ccc2o1 [Example 154, 1-(2-{2-[(2R)-2-methyl-1-pyrrolidinyl]ethyl}-1-benzofuran-5-yl)-1H-imidazole] |

The remaining lines, values behind:

| Structure (SMILES) | Ki |
| --- | --- |
| C[C@@H]1CCCN1CCc1cc2cc(-c3ccc(C#N)c(F)c3)ccc2o1 [Example 111, 2-fluoro-4-(2-{2-[(2R)-2-methyl-1-pyrrolidinyl]ethyl}-1-benzofuran-5-yl)benzonitrile] | 9 nM |
| C[C@@H]1CCCN1CCc1cc2cc(-c3cccc(C#N)c3)ccc2o1 [Example 112, 3-(2-{2-[(2R)-2-methyl-1-pyrrolidinyl]ethyl}-1-benzofuran-5-yl)benzonitrile] | 3 nM |
| C[C@@H]1CCCN1CCc1cc2cc(-c3ccc(F)cc3)ccc2o1 [Example 113, (2R)-1-{2-[5-(4-fluorophenyl)-1-benzofuran-2-yl]ethyl}-2-methylpyrrolidine] | 77 nM |
| C[C@@H]1CCCN1CCc1cc2cc(-c3ccc(Cl)c(Cl)c3)ccc2o1 [Example 114, (2R)-1-{2-[5-(3,4-dichlorophenyl)-1-benzofuran-2-yl]ethyl}-2-methylpyrrolidine] | 97 nM |
| Cc1ccccc1-c1ccc2oc(CCN3CCC[C@H]3C)cc2c1 [Example 115, (2R)-2-methyl-1-{2-[5-(2-methylphenyl)-1-benzofuran-2-yl]ethyl}pyrrolidine] | 33 nM |
| Cc1cccc(-c2ccc3oc(CCN4CCC[C@H]4C)cc3c2)c1 [Example 116, (2R)-2-methyl-1-{2-[5-(3-methylphenyl)-1-benzofuran-2-yl]ethyl}pyrrolidine] | 30 nM |
| Cc1ccc(-c2ccc3oc(CCN4CCC[C@H]4C)cc3c2)cc1 [Example 117, (2R)-2-methyl-1-{2-[5-(4-methylphenyl)-1-benzofuran-2-yl]ethyl}pyrrolidine] | 110 nM |
| COC(=O)c1ccc(-c2ccc3oc(CCN4CCC[C@H]4C)cc3c2)cc1 [Example 118, methyl 4-(2-{2-[(2R)-2-methyl-1-pyrrolidinyl]ethyl}-1-benzofuran-5-yl)benzoate] | 42 nM |
| COc1ccccc1-c1ccc2oc(CCN3CCC[C@H]3C)cc2c1 [Example 119, (2R)-1-{2-[5-(2-methoxyphenyl)-1-benzofuran-2-yl]ethyl}-2-methylpyrrolidine] | 66 nM |
| COc1cccc(-c2ccc3oc(CCN4CCC[C@H]4C)cc3c2)c1 [Example 120, (2R)-1-{2-[5-(3-methoxyphenyl)-1-benzofuran-2-yl]ethyl}-2-methylpyrrolidine] | 23 nM |
| C[C@@H]1CCCN1CCc1cc2cc(-c3cccc(F)c3)ccc2o1 [Example 122, (2R)-1-{2-[5-(3-fluorophenyl)-1-benzofuran-2-yl]ethyl}-2-methylpyrrolidine] | 17 nM |
| C[C@@H]1CCCN1CCc1cc2cc(-c3ccccc3Cl)ccc2o1 [Example 123, (2R)-1-{2-[5-(2-chlorophenyl)-1-benzofuran-2-yl]ethyl}-2-methylpyrrolidine] | 16 nM |
| C[C@@H]1CCCN1CCc1cc2cc(-c3cccc(Cl)c3)ccc2o1 [Example 124, (2R)-1-{2-[5-(3-chlorophenyl)-1-benzofuran-2-yl]ethyl}-2-methylpyrrolidine] | 34 nM |
| CC1CCCN1CCc1cc2cc(-c3ccc(Cl)cc3)ccc2o1 (centres unmarked) [Example 125, 1-{2-[5-(4-chlorophenyl)-benzofuran-2-yl]-ethyl}-2-methylpyrrolidine] | 63 nM |
| C[C@@H]1CCCN1CCc1cc2cc(-c3cccc(C(F)(F)F)c3)ccc2o1 [Example 126, (2R)-2-methyl-1-(2-{5-[3-(trifluoromethyl)phenyl]-1-benzofuran-2-yl}ethyl)pyrrolidine] | 81 nM |
